# From patent US20150105252A1, “SUBSTITUTED PYRAZOLES AS HERBICIDES” (E I DU PONT DE NEMOURS AND COMPANY, priority 2013, published 2015)
# How the values were obtained:
# Assay in all cases: Test C flooded paddy test
# Conditions in all cases: Flood
# [1] = system: barnyardgrass; format: in vivo, Echinochloa crus-galli
# Outline: (§1)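 Compound was added to standing water 3 cm above soil, flood maintained, and plants held in a greenhouse before visual scoring against controls at 13 to 15 days.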
# [2] = system: sedge, umbrella; format: in vivo, Cyperus difformis
# Outline: as §1
# [3] = system: ducksalad; format: in vivo, Heteranthera limosa
# Outline: as §1
# [4] = system: rice; format: in vivo, Oryza sativa
# Outline: as §1
# [5] = 31 g ai/ha, scale 0 to 100 (0 no effect, 100 complete control)
# [6] = 62 g ai/ha, scale 0 to 100 (0 no effect, 100 complete control)
# [7] = 125 g ai/ha, scale 0 to 100 (0 no effect, 100 complete control)
Compound,"Plant response rating, Barnyardgrass [1, 5]","Plant response rating, Barnyardgrass [1, 6]","Plant response rating, Barnyardgrass ([1]; 125 g ai/ha, scale 0 to 100)","Plant response rating, Barnyardgrass ([1]; 250 g ai/ha, scale 0 to 100)","Plant response rating, Sedge, Umbrella [2, 5]","Plant response rating, Sedge, Umbrella [2, 6]","Plant response rating, Sedge, Umbrella ([2]; 125 g ai/ha, scale 0 to 100)","Plant response rating, Sedge, Umbrella ([2]; 250 g ai/ha, scale 0 to 100)","Plant response rating, Ducksalad [3, 5]","Plant response rating, Ducksalad [3, 6]","Plant response rating, Ducksalad ([3]; 125 g ai/ha, scale 0 to 100)","Plant response rating, Ducksalad ([3]; 250 g ai/ha, scale 0 to 100)","Plant response rating, Rice [4, 5]","Plant response rating, Rice [4, 6]","Plant response rating, Rice ([4]; 125 g ai/ha, scale 0 to 100)","Plant response rating, Rice ([4]; 250 g ai/ha, scale 0 to 100)","Plant response rating, Barnyardgrass [1, 7]","Plant response rating, Sedge, Umbrella [2, 7]","Plant response rating, Ducksalad [3, 7]","Plant response rating, Rice [4, 7]",other results
CCONC(=O)c1cc(CC)n(Cc2cccc(OC(F)(F)F)c2)n1 [Compound 72],0,20,20,20,50,60,65,65,0,70,75,75,0,0,0,30,,,,,
CCONC(=O)c1cc(CC)n(Cc2ccnc(C(F)(F)F)c2)n1 [Compound 77],0,0,20,20,0,50,60,75,20,40,70,75,0,0,0,0,,,,,
CCCNC(=O)c1cc(CC)n(Cc2nc(C(F)(F)F)nn2C)n1 [Compound 109],0,0,35,40,30,60,75,85,30,40,75,85,0,0,20,35,,,,,
CCCc1cc(C(=O)NCC(F)(F)F)nn1Cc1ccnc(OC(F)F)c1 [Compound 127],0,0,15,30,50,60,70,95,30,40,60,80,0,0,0,0,,,,,
CCOc1cc(C(=O)NCC(F)(F)F)nn1Cc1ccnc(OC(F)F)c1 [Compound 128],0,0,35,,30,50,75,85,40,75,80,90,0,0,0,0,,,,,
CCCNC(=O)c1cc(CCF)n(Cc2ccnc(C(F)(F)F)c2)n1 [Compound 177],0,0,,0,50,75,,90,0,50,,85,0,0,,0,0,85,75,0,
CCNC(=O)c1cc(CCF)n(Cc2ccnc(C(F)(F)F)c2)n1 [Compound 178],0,0,,20,0,0,,80,0,30,,90,0,0,,20,0,40,60,0,
CCCc1cc(C(=O)NOC(C)C)nn1Cc1cc(C(F)(F)F)nn1C [Compound 203],0,0,,0,40,40,,85,0,0,,80,0,0,,0,0,70,20,0,
CCCc1cc(C(=O)NC2CC2)nn1Cc1ccnc(OC(F)F)c1 [Compound 205],,0,,35,,75,,100,,75,,100,,0,,0,25,95,90,0,"Plant response rating, Barnyardgrass ([1]; 500 g ai/ha, scale 0 to 100): 60; Plant response rating, Sedge, Umbrella ([2]; 500 g ai/ha, scale 0 to 100): 100; Plant response rating, Ducksalad ([3]; 500 g ai/ha, scale 0 to 100): 100; Plant response rating, Rice ([4]; 500 g ai/ha, scale 0 to 100): 35"
